Data as given in US20250154138A1, “Small Molecule IL-17A Modulators” (BeiGene, Ltd., priority 2022, published 2025).

Experiments:
[1] = target: human IL-17A / human IL-17RA (Homo sapiens (Human), UniProt Q16552); assay: Human IL-17A biochemical assay (HTRF, blocking of IL-17A binding to IL-17RA); conditions: 0.4 nM IL-17A, 0.3 nM IL-17RA, max compound concentration 10 uM
How it was run: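 HTRF readout (ex337, em620/665 nm ratio) after anti-6His Tb cryptate and anti-human IgG-XL665 detection, 1 h RT. Beforehand, 0.4 nM IL-17A sat with compound 3 h RT, then 0.3 nM IL-17RA 1 h. IC50 by four-parameter logistic fit.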

[2] = test system: IL-17-induced GROα secretion from HT-29 cells; assay: GROα release assay in human colorectal adenocarcinoma epithelial cell (HT-29, ELISA); type: cell-based; conditions: Homo sapiens, HT-29, 48 h, 10 ng/mL IL-17A, highest concentration 10 μM, read-out: Cellular assay HT29 cell/CXCL1 IC50
How it was run: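 IC50 values come from four-parameter fits of GROα levels, quantified by ELISA (450 nm, standard curve) in supernatants. Compounds, 4-fold serially diluted from 10 μM, were mixed 15 min with IL-17A (10 ng/mL final) before 48 h incubation with HT-29 cells at 37°C.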

human IL-17A / human IL-17RA, sequence (Q16552 24-155): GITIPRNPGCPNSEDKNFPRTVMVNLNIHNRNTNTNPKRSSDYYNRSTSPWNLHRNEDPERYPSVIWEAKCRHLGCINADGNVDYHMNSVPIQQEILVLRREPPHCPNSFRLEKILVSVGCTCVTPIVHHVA

| Structure (SMILES) | IC50 [1] | IC50 [2] |
| --- | --- | --- |
| Cn1nccc1C(=O)N[C@H](C(=O)Nc1ccc2c(c1)CC(CNc1ccccc1)(N1CC3(CC3)CNC1=O)C2)C1CCCCC1 (stereo partly drawn) [Example 161, N-((1S)-1-cyclohexyl-2-oxo-2-((2-(6-oxo-5,7-diazaspiro[2.5]octan-5-yl)-2-((phenylamino)methyl)-2,3-dihydro-1H-inden-5-yl)amino)ethyl)-1-methyl-1H-pyrazole-5-carboxamide] | 121 nM | 146 nM |
| CC(C)[C@@H]1CN(C2Cc3ccc(NC(=O)[C@@H](NC(=O)c4ccnn4C)C4CCCCC4)cc3C2)C(=O)N1 (stereo partly drawn) [Example 162, N-((1S)-1-cyclohexyl-2-((2-((R)-4-isopropyl-2-oxoimidazolidin-1-yl)-2,3-dihydro-1H-inden-5-yl)amino)-2-oxoethyl)-1-methyl-1H-pyrazole-5-carboxamide] | 540 nM | 1060 nM |
| CC(C)[C@@H]1CN(C2(C(=O)NCc3ccccn3)Cc3ccc(NC(=O)[C@@H](NC(=O)c4ccnn4C)C4CCCCC4)cc3C2)C(=O)N1 (stereo partly drawn) [Example 163, N-((1S)-1-cyclohexyl-2-((2-((R)-4-isopropyl-2-oxoimidazolidin-1-yl)-2-((pyridin-2-ylmethyl)carbamoyl)-2,3-dihydro-1H-inden-5-yl)amino)-2-oxoethyl)-1-methyl-1H-pyrazole-5-carboxamide] | 19 nM | 38.8 nM |
| CNC(=O)C1(N2CC3(CC3)CNC2=O)Cc2ccc(NC(=O)C(NC(=O)c3ccnn3C)C3CCC(C(F)(F)F)CC3)cc2C1 (centres unmarked) [Example 164, 1-methyl-N-(2-((2-(methylcarbamoyl)-2-(6-oxo-5,7-diazaspiro[2.5]octan-5-yl)-2,3-dihydro-1H-inden-5-yl)amino)-2-oxo-1-(4-(trifluoromethyl)cyclohexyl)ethyl)-1H-pyrazole-5-carboxamide] | 35.2 nM | 112 nM |
| CC[C@H]1CC[C@H]([C@H](NC(=O)c2ccnn2C)C(=O)Nc2ccc3c(c2)CC(COC)(N2CC4(CC4)CNC2=O)C3)CC1 (stereo partly drawn) [Example 165, N-((1S)-1-((1r,4S)-4-ethylcyclohexyl)-2-((2-(methoxymethyl)-2-(6-oxo-5,7-diazaspiro[2.5]octan-5-yl)-2,3-dihydro-1H-inden-5-yl)amino)-2-oxoethyl)-1-methyl-1H-pyrazole-5-carboxamide] | 173 nM | 322 nM |
| CC[C@@H]1CN(C2(C(=O)NC)Cc3ccc(NC(=O)[C@@H](NC(=O)c4ccnn4C)C(C4CC4)C4CC4)cc3C2)C(=O)N1 (stereo partly drawn) [Example 166, N-((2S)-1,1-dicyclopropyl-3-((2-((R)-4-ethyl-2-oxoimidazolidin-1-yl)-2-(methylcarbamoyl)-2,3-dihydro-1H-inden-5-yl)amino)-3-oxopropan-2-yl)-1-methyl-1H-pyrazole-5-carboxamide] | 169 nM | 135 nM |
| CNC(=O)C1(N2CC3(CC3)CNC2=O)Cc2ccc(NC(=O)[C@@H](NC(=O)c3c(F)cnn3C)C3CCCCC3)cc2C1 (stereo partly drawn) [Example 167, N-((1S)-1-cyclohexyl-2-((2-(methylcarbamoyl)-2-(6-oxo-5,7-diazaspiro[2.5]octan-5-yl)-2,3-dihydro-1H-inden-5-yl)amino)-2-oxoethyl)-4-fluoro-1-methyl-1H-pyrazole-5-carboxamide] | 127 nM | 220 nM |
| CNC(=O)C1(N2CC3(CC3)CNC2=O)Cc2ccc(NC(=O)C(NC(=O)c3ccnn3C)C3CCC(CC(F)(F)F)CC3)cc2C1 (centres unmarked) [Example 168, 1-methyl-N-(2-((2-(methylcarbamoyl)-2-(6-oxo-5,7-diazaspiro[2.5]octan-5-yl)-2,3-dihydro-1H-inden-5-yl)amino)-2-oxo-1-(4-(2,2,2-trifluoroethyl)cyclohexyl)ethyl)-1H-pyrazole-5-carboxamide] | 32.8 nM | 60.5 nM |
| CC(C)[C@@H]1CN(C2(c3nc4ccccc4[nH]3)Cc3ccc(NC(=O)[C@@H](NC(=O)c4ccnn4C)C4CCCCC4)cc3C2)C(=O)N1 (stereo partly drawn) [Example 169, N-((1S)-2-((2-(1H-benzo[d]imidazol-2-yl)-2-((R)-4-isopropyl-2-oxoimidazolidin-1-yl)-2,3-dihydro-1H-inden-5-yl)amino)-1-cyclohexyl-2-oxoethyl)-1-methyl-1H-pyrazole-5-carboxamide] | 56.4 nM | 65.2 nM |
| CC(C)C1(N2CC3(CC3)CNC2=O)Cc2ccc(NC(=O)[C@@H](NC(=O)c3ccnn3C)C3CCCCC3)cc2C1 (stereo partly drawn) [Example 170, N-((1S)-1-cyclohexyl-2-((2-isopropyl-2-(6-oxo-5,7-diazaspiro[2.5]octan-5-yl)-2,3-dihydro-1H-inden-5-yl)amino)-2-oxoethyl)-1-methyl-1H-pyrazole-5-carboxamide] | 169 nM | 227 nM |
| CC[C@H]1CC[C@H]([C@H](NC(=O)c2ccnn2C)C(=O)Nc2ccc3c(c2)CC(C(=O)NC)(N2CC4(CC4)CNC2=O)C3)CC1 (stereo partly drawn) [Example 171, N-((1S)-1-((1r,4S)-4-ethylcyclohexyl)-2-((2-(methylcarbamoyl)-2-(6-oxo-5,7-diazaspiro[2.5]octan-5-yl)-2,3-dihydro-1H-inden-5-yl)amino)-2-oxoethyl)-1-methyl-1H-pyrazole-5-carboxamide] | 7 nM | 9.7 nM |
| Cn1nccc1C(=O)N[C@H](C(=O)Nc1ccc2c(c1)CC(CNc1ccccc1F)(N1CC3(CC3)CNC1=O)C2)C1CCCCC1 (stereo partly drawn) [Example 172, N-((1S)-1-cyclohexyl-2-((2-(((2-fluorophenyl)amino)methyl)-2-(6-oxo-5,7-diazaspiro[2.5]octan-5-yl)-2,3-dihydro-1H-inden-5-yl)amino)-2-oxoethyl)-1-methyl-1H-pyrazole-5-carboxamide] | 400 nM | 377 nM |
| CNC(=O)C1(N2CC3(CNC2=O)CC(F)(F)C3)Cc2ccc(NC(=O)[C@@H](NC(=O)c3ccnn3C)C3CCCCC3)cc2C1 (stereo partly drawn) [Example 174, N-((1S)-1-cyclohexyl-2-((2-(2,2-difluoro-7-oxo-6,8-diazaspiro[3.5]nonan-6-yl)-2-(methylcarbamoyl)-2,3-dihydro-1H-inden-5-yl)amino)-2-oxoethyl)-1-methyl-1H-pyrazole-5-carboxamide] | 264 nM | 485 nM |
| Cn1nccc1C(=O)N[C@H](C(=O)Nc1ccc2c(c1)CC(C(=O)NCc1ccccc1F)(N1CC3(CC3)CNC1=O)C2)C1CCCCC1 (stereo partly drawn) [Example 175, N-((1S)-1-cyclohexyl-2-((2-((2-fluorobenzyl)carbamoyl)-2-(6-oxo-5,7-diazaspiro[2.5]octan-5-yl)-2,3-dihydro-1H-inden-5-yl)amino)-2-oxoethyl)-1-methyl-1H-pyrazole-5-carboxamide] | 22.4 nM | 10.1 nM |
| CNC(=O)C1(N2CC3(CC3)CNC2=O)Cc2ccc(NC(=O)[C@@H](NC(=O)C(F)(F)c3ccc(C#N)n3C)C3CCCCC3)cc2C1 (stereo partly drawn) [Example 176, 5-((S)-2-(2-(5-cyano-1-methyl-1H-pyrrol-2-yl)-2,2-difluoroacetamido)-2-cyclohexylacetamido)-N-methyl-2-(6-oxo-5,7-diazaspiro[2.5]octan-5-yl)-2,3-dihydro-1H-indene-2-carboxamide] | 69.9 nM | 290 nM |
| CC(C)n1nccc1C(=O)N[C@H](C(=O)Nc1ccc2c(c1)CC(N1C[C@@H](C(F)(F)F)NC1=O)C2)C(C1CC1)C1CC1 (stereo partly drawn) [Example 177, N-((2S)-1,1-dicyclopropyl-3-oxo-3-((2-((S)-2-oxo-4-(trifluoromethyl)imidazolidin-1-yl)-2,3-dihydro-1H-inden-5-yl)amino)propan-2-yl)-1-isopropyl-1H-pyrazole-5-carboxamide] | 53.3 nM | 59.4 nM |
